Assays:
[1] = system: Sigma 2 receptor; assay: Tested for [3H]DTG binding to sigma-2 receptor in NG108-15 cell membranes
[2] = target: D(2) dopamine receptor (Homo sapiens, UniProt P14416); assay: biochemical
Description: Displacement of [3H]spiperone from CHO-K1 cell membranes expressing human dopamine receptor D2

[3] = target: D(3) dopamine receptor (Homo sapiens, UniProt P35462); assay: biochemical
Description: Displacement of [3H]-spiperone from CHO-K1 cell membranes expressing human dopamine 3 receptors

[4] = species: Rattus norvegicus; settings: Frontal cortex
Description: Effect of compound (2 mg/kg ip) on the concentration of DA in rat frontal cortex

[5] = species: Rattus norvegicus; settings: Striatum
Description: Effect of compound (2 mg/kg ip) on the concentration of DA in rat striatum

[6] = target: Sigma 2 receptor; assay: Tested for [3H]DTG binding to sigma-2 receptor in NG108-15 membrane; format: cell membranes
[7] = species: Rattus norvegicus; settings: Striatum; remark: listed apart in the source
Description: Effect of compound (2 mg/kg ip) on the concentration of HVA in rat striatum

[8] = species: Rattus norvegicus; settings: Frontal cortex; remark: listed apart in the source
Description: Effect of compound (2 mg/kg ip) on the concentration of 5-HT in rat frontal cortex

[9] = species: Rattus norvegicus; settings: Striatum; remark: listed apart in the source
Description: Effect of compound (2 mg/kg ip) on the concentration of DOPAC in rat striatum

[10] = species: Rattus norvegicus
Description: Effect of compound (2 mg/kg ip) on the concentration of DOPAC in rat mesolimbic region

[11] = species: Rattus norvegicus; remark: listed apart in the source
Description: Effect of compound (2 mg/kg ip) on the concentration of DA in rat mesolimbic region

[12] = species: Rattus norvegicus; remark: listed apart in the source
Description: Effect of compound (2 mg/kg ip) on the concentration of 5-HIAA in rat mesolimbic region

[13] = species: Rattus norvegicus; remark: listed apart in the source
Description: Effect of compound (2 mg/kg ip) on the concentration of HVA in rat mesolimbic region

[14] = species: Rattus norvegicus; settings: Striatum; remark: listed apart in the source
Description: Effect of compound (2 mg/kg ip) on the concentration of 5-HIAA in rat striatum

[15] = species: Rattus norvegicus; settings: Striatum; remark: listed apart in the source
Description: Effect of compound (2 mg/kg ip) on the concentration of 5-HT in rat striatum

[16] = species: Rattus norvegicus; settings: Frontal cortex; remark: listed apart in the source
Description: Effect of compound (2 mg/kg ip) on the concentration of DOPAC/DA in rat frontal cortex

[17] = species: Rattus norvegicus; settings: Frontal cortex; remark: listed apart in the source
Description: Effect of compound (2 mg/kg ip) on the concentration of 5-HIAA in rat frontal cortex

[18] = species: Rattus norvegicus; settings: Frontal cortex; remark: listed apart in the source
Description: Effect of compound (2 mg/kg ip) on the concentration of HVA in rat frontal cortex

[19] = species: Rattus norvegicus; remark: listed apart in the source
Description: Effect of compound (2 mg/kg ip) on the concentration of DOPAC/DA in rat mesolimbic region

[20] = species: Rattus norvegicus; settings: Striatum; remark: listed apart in the source
Description: Effect of compound (2 mg/kg ip) on the concentration of DOPAC/DA in rat striatum

[21] = species: Rattus norvegicus; remark: listed apart in the source
Description: Effect of compound (2 mg/kg ip) on the concentration of 5-HT in rat mesolimbic region

[22] = species: Rattus norvegicus; settings: Frontal cortex; remark: listed apart in the source
Description: Effect of compound (2 mg/kg ip) on the concentration of DOPAC in rat frontal cortex

[23] = species: Rattus norvegicus; settings: Striatum; remark: listed apart in the source
Description: Effect of compound (0.2 mg/kg ip) on the concentration of HVA in rat striatum

[24] = species: Rattus norvegicus; settings: Frontal cortex; remark: listed apart in the source
Description: Effect of compound (0.2 mg/kg ip) on the concentration of HVA in rat frontal cortex

[25] = species: Rattus norvegicus; settings: Striatum; remark: listed apart in the source
Description: Effect of compound (0.2 mg/kg ip) on the concentration of DOPAC/DA in rat striatum

[26] = species: Rattus norvegicus; settings: Striatum; remark: listed apart in the source
Description: Effect of compound (0.2 mg/kg ip) on the concentration of DOPAC in rat striatum

[27] = species: Rattus norvegicus; settings: Striatum; remark: listed apart in the source
Description: Effect of compound (0.2 mg/kg ip) on the concentration of 5-HIAA in rat striatum

[28] = species: Rattus norvegicus; remark: listed apart in the source
Description: Effect of compound on (0.2 mg/kg ip) the concentration of 5-HIAA in rat mesolimbic region

[29] = species: Rattus norvegicus; remark: listed apart in the source
Description: Effect of compound (0.2 mg/kg ip) on the concentration of DA in rat mesolimbic region

[30] = species: Rattus norvegicus; remark: listed apart in the source
Description: Effect of compound (0.2 mg/kg ip) on the concentration of HVA in rat mesolimbic region

[31] = species: Rattus norvegicus; remark: listed apart in the source
Description: Effect of compound (0.2 mg/kg ip) on the concentration of DOPAC/DA in rat mesolimbic region

[32] = species: Rattus norvegicus; remark: listed apart in the source
Description: Effect of compound (0.2 mg/kg ip) on the concentration of DOPAC in rat mesolimbic region

[33] = species: Rattus norvegicus; settings: Frontal cortex; remark: listed apart in the source
Description: Effect of compound on (0.2 mg/kg ip) the concentration of DOPAC/DA in rat frontal cortex

[34] = species: Rattus norvegicus; settings: Frontal cortex; remark: listed apart in the source
Description: Effect of compound on (0.2 mg/kg ip) the concentration of 5-HT in rat frontal cortex

[35] = species: Rattus norvegicus; settings: Frontal cortex; remark: listed apart in the source
Description: Effect of compound (0.2 mg/kg ip) on the concentration of DOPAC in rat frontal cortex

[36] = species: Rattus norvegicus; settings: Striatum; remark: listed apart in the source
Description: Effect of compound (0.2 mg/kg ip) on the concentration of DA in rat striatum

[37] = species: Rattus norvegicus; settings: Frontal cortex; remark: listed apart in the source
Description: Effect of compound on (0.2 mg/kg ip) the concentration of 5-HIAA in rat frontal cortex

[38] = species: Rattus norvegicus; remark: listed apart in the source
Description: Effect of compound on (0.2 mg/kg ip) the concentration of 5-HT in rat mesolimbic region

[39] = species: Rattus norvegicus; settings: Striatum; remark: listed apart in the source
Description: Effect of compound (0.2 mg/kg ip) on the concentration of 5-HT in rat striatum

[40] = species: Rattus norvegicus; settings: Frontal cortex; remark: listed apart in the source
Description: Effect of compound (0.2 mg/kg ip) on the concentration of DA in rat frontal cortex

Sequence of D(3) dopamine receptor (P35462 whole entry): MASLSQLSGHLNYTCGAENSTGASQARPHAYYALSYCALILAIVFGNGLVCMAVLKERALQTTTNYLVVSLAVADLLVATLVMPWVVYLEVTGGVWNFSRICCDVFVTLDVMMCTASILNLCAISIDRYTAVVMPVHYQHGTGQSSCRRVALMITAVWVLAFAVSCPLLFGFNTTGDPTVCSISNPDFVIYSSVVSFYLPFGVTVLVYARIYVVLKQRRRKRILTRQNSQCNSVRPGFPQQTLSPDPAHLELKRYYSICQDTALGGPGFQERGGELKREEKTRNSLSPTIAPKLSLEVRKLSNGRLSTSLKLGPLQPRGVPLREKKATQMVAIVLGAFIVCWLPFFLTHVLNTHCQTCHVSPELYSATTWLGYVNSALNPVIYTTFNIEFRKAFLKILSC
Sequence of D(2) dopamine receptor (P14416 whole entry): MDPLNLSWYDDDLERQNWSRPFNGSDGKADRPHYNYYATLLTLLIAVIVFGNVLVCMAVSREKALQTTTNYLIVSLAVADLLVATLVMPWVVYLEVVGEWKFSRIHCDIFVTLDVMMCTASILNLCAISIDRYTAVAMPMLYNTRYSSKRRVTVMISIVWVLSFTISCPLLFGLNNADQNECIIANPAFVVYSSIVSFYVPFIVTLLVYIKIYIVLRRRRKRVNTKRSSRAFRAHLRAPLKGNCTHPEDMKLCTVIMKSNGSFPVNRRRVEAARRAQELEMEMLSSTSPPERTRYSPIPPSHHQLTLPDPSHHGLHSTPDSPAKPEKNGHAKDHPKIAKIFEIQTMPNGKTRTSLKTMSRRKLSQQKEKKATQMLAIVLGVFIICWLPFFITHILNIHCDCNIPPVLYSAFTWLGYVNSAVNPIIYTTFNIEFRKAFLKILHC

`O[C@@H](CCCN1CCN(c2ccccn2)CC1)c1ccc(F)cc1` showed a Ki [1] of 38 nM, a Ki [2] of 101 nM and a Ki [3] of 125 nM.

`O=C(CCCN1CCN(c2ccccn2)CC1)c1ccc(F)cc1` [AZAPERONE] showed a Ki [1] of 51 nM.

`O[C@@H](CCCN1CCC(O)(c2ccc(Cl)cc2)CC1)c1ccc(F)cc1` showed a Concentration (ng (g of tissue)-1) [4] of 19, a Concentration (ng (g of tissue)-1) [5] of 5230 and a Ki [6] of 8.2 nM. The Concentration (ng (g of tissue)-1) [7] was 1980, the Ki [3] was 330 nM and the Concentration (ng (g of tissue)-1) [8] was 165. It also gave a Concentration (ng (g of tissue)-1) [9] of 2740, a Concentration (ng (g of tissue)-1) [10] of 1310 and a Concentration (ng (g of tissue)-1) [11] of 2230. For the same compound, the Concentration (ng (g of tissue)-1) [12] was 527, the Concentration (ng (g of tissue)-1) [13] was 788 and the Concentration (ng (g of tissue)-1) [14] was 437. The Concentration (ng (g of tissue)-1) [15] was 367, the Concentration (ng (g of tissue)-1) [16] was 1.7 and the Concentration (ng (g of tissue)-1) [17] was 156. The Concentration (ng (g of tissue)-1) [18] was 80, the Concentration (ng (g of tissue)-1) [19] was 0.588 and the Concentration (ng (g of tissue)-1) [20] was 0.523. For the same compound, the Concentration (ng (g of tissue)-1) [21] was 639 and the Concentration (ng (g of tissue)-1) [22] was 32.

With `O[C@@H](CCCN1CCN(c2ncc(F)cn2)CC1)c1ccc(F)cc1` [BMY-14802] the Ki [1] was 96 nM, the Ki [2] was 3350 nM and the Ki [3] was greater than 2000 nM.

Work on `O=C(CCCN1CCC(O)(c2ccc(Cl)cc2)CC1)c1ccc(F)cc1` yielded a Concentration (ng (g of tissue)-1) [23] of 2190, a Concentration (ng (g of tissue)-1) [24] of 102 and a Concentration (ng (g of tissue)-1) [25] of 0.558. It also gave a Concentration (ng (g of tissue)-1) [26] of 2870, a Concentration (ng (g of tissue)-1) [27] of 552 and a Concentration (ng (g of tissue)-1) [28] of 648. It also gave a Concentration (ng (g of tissue)-1) [29] of 1680, a Concentration (ng (g of tissue)-1) [30] of 669 and a Concentration (ng (g of tissue)-1) [31] of 0.587. It also gave a Concentration (ng (g of tissue)-1) [32] of 986, a Concentration (ng (g of tissue)-1) [33] of 1.18 and a Concentration (ng (g of tissue)-1) [34] of 160. It also gave a Concentration (ng (g of tissue)-1) [35] of 32, a Concentration (ng (g of tissue)-1) [36] of 5140 and a Concentration (ng (g of tissue)-1) [37] of 180. It also gave a Concentration (ng (g of tissue)-1) [38] of 657, a Concentration (ng (g of tissue)-1) [39] of 407 and a Concentration (ng (g of tissue)-1) [40] of 27.

In the case of `O[C@H](CCCN1CCN(c2ncc(F)cn2)CC1)c1ccc(F)cc1`, the Ki [1] is reported as 1240 nM, the Ki [2] is reported as greater than 5000 nM and the Ki [3] is reported as greater than 2000 nM.

In the case of `O[C@H](CCCN1CCN(c2ccccn2)CC1)c1ccc(F)cc1`, the Ki [1] is reported as 280 nM, the Ki [2] is reported as 403 nM and the Ki [3] is reported as 374 nM.

For `O[C@H](CCCN1CCC(O)(c2ccc(Cl)cc2)CC1)c1ccc(F)cc1`, the Concentration (ng (g of tissue)-1) [4] was 18, the Concentration (ng (g of tissue)-1) [5] was 3750 and the Ki [6] was 31 nM. The Concentration (ng (g of tissue)-1) [7] was 1780, the Ki [3] was 1300 nM and the Concentration (ng (g of tissue)-1) [8] was 154. The Concentration (ng (g of tissue)-1) [9] was 2440, the Concentration (ng (g of tissue)-1) [10] was 1020 and the Concentration (ng (g of tissue)-1) [11] was 1660. It also gave a Concentration (ng (g of tissue)-1) [12] of 492, a Concentration (ng (g of tissue)-1) [13] of 641 and a Concentration (ng (g of tissue)-1) [14] of 510. It also gave a Concentration (ng (g of tissue)-1) [15] of 397, a Concentration (ng (g of tissue)-1) [16] of 1.81 and a Concentration (ng (g of tissue)-1) [17] of 172. The Concentration (ng (g of tissue)-1) [18] was 98, the Concentration (ng (g of tissue)-1) [19] was 0.616 and the Concentration (ng (g of tissue)-1) [20] was 0.651. The Concentration (ng (g of tissue)-1) [21] was 627 and the Concentration (ng (g of tissue)-1) [22] was 32.

From ChEMBL document CHEMBL1126960 (J Med Chem, 1993)
